The results in this text go back to US20260184663A1, “INDENE COMPOUNDS, PHARMACEUTICAL COMPOSITIONS THEREOF, AND THEIR THERAPEUTIC APPLICATIONS” (NucMito Pharmaceuticals co. Ltd., priority 2022, published 2026).

For orientation: inhibition means the relative decrease from the control value, in per cent.

Each structure is given as a SMILES string.

Common to all, as to format: cell-based
Test [1] concerns SW480 (colon cancer). Nature of the test: Antiproliferative activity (CCK-8 cell viability), SW480. The following applies: Homo sapiens, 72 h, read-out: Antiproliferative activity in cancerous cells, SW480 (inhibition of cell growth); for inhibition at 3.3 µM: Compound concentration: 3.3 μM; for inhibition at 10 µM: Compound concentration: 10 μM. The gist of the method:
(§1)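 Growth inhibition graded in bands from percent viability against DMSO vehicle, read as CCK-8 absorbance at 450 nm. Compound tested at 3.3, 10 or 30 μM for 72 h, 37 °C; media contained 10% FBS: DMEM for HepG2/SW480, MEM for HeLa, F-12K for A549.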

The test system of test [2] is B16F10 (malignant melanoma). Nature of the test: Antiproliferative activity (CCK-8 cell viability), B16F10. The following applies: Mus musculus, 72 h, read-out: Antiproliferative activity in cancerous cells, B16F10 (inhibition of cell growth); for inhibition at 3.3 µM: B16-F10, Compound concentration: 3.3 μM; for inhibition at 10 µM: B16-F10, Compound concentration: 10 μM. The gist of the method: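 Cell growth inhibition was measured in B16F10 malignant melanoma cells with a Cell Counting Kit-8 viability assay. Cells were maintained in DMEM plus 10% fetal bovine serum, seeded at 2,000-5,000 cells/well in 96-well plates, and treated for 72 h at 37° C. Viability was expressed relative to DMSO-treated vehicle control wells.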

Test [3] deals with A549 (lung adenocarcinoma). Description: Antiproliferative activity (CCK-8 cell viability), A549. The conditions noted are these: Homo sapiens, 72 h, read-out: Antiproliferative activity in cancerous cells, A549 (inhibition of cell growth); for inhibition at 3.3 µM: Compound concentration: 3.3 μM; for inhibition at 10 µM: Compound concentration: 10 μM. The gist of the method: as §1

Test [4] deals with A431 (epidermoid carcinoma). Nature of the test: Antiproliferative activity (CCK-8 cell viability), A431. The following applies: Homo sapiens, 72 h, read-out: Antiproliferative activity in cancerous cells, A431 (inhibition of cell growth); for inhibition at 3.3 µM: A-431, Compound concentration: 3.3 μM; for inhibition at 10 µM: A-431, Compound concentration: 10 μM. The gist of the method:
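This growth inhibition assay used A431 cells maintained in Dulbecco's modified Eagle's medium plus 10% fetal bovine serum. Cells were seeded in 96-well plates, treated with compound for 72 h at 37° C., and then given 10 μL CCK-8 solution. After a further 4 h, absorbance was read at 450 nm.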

Test [5] relates to MDA-MB-231 (breast cancer). Description: Antiproliferative activity (CCK-8 cell viability), MDA-MB-231. The following applies: Homo sapiens, 72 h, read-out: Antiproliferative activity in cancerous cells, MDA-MB-231 (inhibition of cell growth); for inhibition at 3.3 µM: Compound concentration: 3.3 μM; for inhibition at 10 µM: Compound concentration: 10 μM. The gist of the method:
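Growth inhibition of human MDA-MB-231 breast cancer cells was assessed with a Cell Counting Kit-8. Cells cultured in DMEM plus 10% FBS were seeded at 2,000-5,000 cells/well, treated after attachment, and kept 72 h at 37° C. CCK-8 solution (10 μL) was added for 4 h, and absorbance at 450 nm was compared with DMSO-treated controls.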

In test [6] the test system is HeLa (cervical cancer). Description: Antiproliferative activity (CCK-8 cell viability), HeLa. The following applies: Homo sapiens, 72 h, read-out: Antiproliferative activity in cancerous cells, HELA (inhibition of cell growth); for inhibition at 3.3 µM: Compound concentration: 3.3 μM; for inhibition at 10 µM: Compound concentration: 10 μM. The gist of the method: as §1

For test [7], the system named is HepG2 (liver cancer). Description: Antiproliferative activity (CCK-8 cell viability), HepG2. The conditions noted are these: Homo sapiens, 72 h, read-out: Antiproliferative activity in cancerous cells, HepG2 (inhibition of cell growth); for inhibition at 3.3 µM: Compound concentration: 3.3 μM; for inhibition at 10 µM: Compound concentration: 10 μM. The gist of the method:
as §1

As to `CC1=C(CC(=O)O)c2cc(F)ccc2/C1=C\c1ccc(CCCc2ccc(Cl)cc2)cc1` [B119, (Z)-2-(1-(4-(3-(4-Chlorophenyl)propyl)benzylidene)-5-fluoro-2-methyl-1H-inden-3-yl)acetic acid], the inhibition at 3.3 µM in test [1] was not below 50%; in test [2], less than 30%; in test [3], 30 to 50%; in test [4], not below 50%; in test [5], less than 30%; in test [6], less than 30%. The inhibition at 3.3 µM in test [7] was not below 50%. Further, the inhibition at 10 µM is not below 50% in test [1]; not below 50% in test [2]; not below 50% in test [3]; not below 50% in test [4]; less than 30% in test [5]; not below 50% in test [6]. The inhibition at 10 µM in test [7] was not below 50%.

As for `CC1=C(CC(=O)O)c2cc(Br)ccc2/C1=C\c1ccc(COCc2ccc(Cl)cc2)cc1` [B120, (Z)-2-(5-Bromo-1-(4-(((4-chlorobenzyl)oxy)methyl)benzylidene)-2-methyl-1H-inden-3-yl)acetic acid], the inhibition at 3.3 µM in test [1] is less than 30%; in test [2] it was less than 30%; in test [3] it was 30 to 50%; in test [4] it was not below 50%; in test [5] it was less than 30%; in test [6] it was not below 50%. For the same compound, in test [7], the inhibition at 3.3 µM lay within 30 to 50%. Further, the inhibition at 10 µM in test [1] is not below 50%; in test [2], less than 30%; in test [3], not below 50%; in test [4] it was not below 50%; in test [5], less than 30%; in test [6], not below 50%. Also, the inhibition at 10 µM in test [7] was not below 50%.

As for `CCc1ccc2c(c1)/C(=C\c1ccc(COCc3ccc(F)cc3)cc1)C(C)=C2CC(=O)O` [B121, (Z)-2-(6-Ethyl-1-(4-(((4-fluorobenzyl)oxy)methyl)benzylidene)-2-methyl-1H-inden-3-yl)acetic acid], the inhibition at 3.3 µM is less than 30% in test [1]; 30 to 50% in test [2]; 30 to 50% in test [3]; not below 50% in test [4]; less than 30% in test [5]; less than 30% in test [6]. For the same compound, in test [7], the inhibition at 3.3 µM was less than 30%. For the same compound, the inhibition at 10 µM in test [1] was 30 to 50%; in test [2], 30 to 50%; in test [3] it was not below 50%; in test [4], not below 50%; in test [5] it was less than 30%; in test [6], not below 50%. Moreover, the inhibition at 10 µM in test [7] is not below 50%.

For the compound `CCc1ccc2c(c1)C(CC(=O)O)=C(C)/C2=C/c1ccc(COCc2ccc(Cl)cc2)cc1` [B122, (Z)-2-(1-(4-(((4-Chlorobenzyl)oxy)methyl)benzylidene)-5-ethyl-2-methyl-1H-inden-3-yl)acetic acid], the inhibition at 3.3 µM is 30 to 50% in test [1]; 30 to 50% in test [2]; 30 to 50% in test [3]; not below 50% in test [4]; less than 30% in test [5]; less than 30% in test [6]. The inhibition at 3.3 µM in test [7] is not below 50%. The inhibition at 10 µM in test [1], in test [2], in test [3], in test [4], in test [5] and in test [6] was not below 50% each time. Further, in test [7], the inhibition at 10 µM was not below 50%.
